NC(=O)c1ncn([C@@H]2O[C@H](CO)[C@@H](O)[C@H]2O)n1
solubility (mole fraction)
Conditions	in DMSO	in acetone	in ethanol	in formic acid	in methanol	in n-butanol	in n-propanol	in sec-butanol	in water
283.15 K	–	3.77e-05	5.95e-05	0.0483	0.000576	7.44e-05	4.57e-05	7.85e-05	0.00879
288.15 K	–	4.45e-05	8.55e-05	0.0533	0.000665	8.95e-05	5.73e-05	8.47e-05	0.0104
293.15 K	0.0532	5.43e-05	0.000117	0.0644	0.000743	0.000117	7.99e-05	9.62e-05	0.0123
298.15 K	0.0659	6.36e-05	0.000158	0.0785	0.000865	0.000149	0.000102	0.000104	0.0144
303.15 K	0.075	7.87e-05	0.000209	0.091	0.00103	0.000175	0.000131	0.000122	0.0165
308.15 K	0.0821	9.41e-05	0.000282	0.104	0.00122	0.00021	0.000161	0.000135	0.019
313.15 K	0.095	0.000114	0.000339	0.114	0.00138	0.000246	0.000194	0.000161	0.0225
318.15 K	0.11	0.000139	0.000435	0.131	0.00169	0.000288	0.000235	0.000196	0.0269
323.15 K	0.125	0.000153	0.000552	0.159	0.00194	0.000362	0.000295	0.000224	0.0305

Reference: BigSolDB 2.1
